# Source: patent US9096639B2, “17-hydroxy-17-pentafluorethyl-estra-4,9(10)-dien-11-acyloxyalkylene phenyl derivatives, methods for the production thereof and use thereof for treating diseases” (Bayer Intellectual Property GmbH, priority 2009, dated 2015)
# Molecular target: T1, human progesterone receptor A (Homo sapiens, UniProt P06401)
# T1 construct: expressed in transfected cells; host or cells: SK-N-MC human neuroblastoma cells, stably transfected with pRChPR-A-neo and pMMTV-LUC
# T1 sequence (P06401 1-769 isoform P06401-2): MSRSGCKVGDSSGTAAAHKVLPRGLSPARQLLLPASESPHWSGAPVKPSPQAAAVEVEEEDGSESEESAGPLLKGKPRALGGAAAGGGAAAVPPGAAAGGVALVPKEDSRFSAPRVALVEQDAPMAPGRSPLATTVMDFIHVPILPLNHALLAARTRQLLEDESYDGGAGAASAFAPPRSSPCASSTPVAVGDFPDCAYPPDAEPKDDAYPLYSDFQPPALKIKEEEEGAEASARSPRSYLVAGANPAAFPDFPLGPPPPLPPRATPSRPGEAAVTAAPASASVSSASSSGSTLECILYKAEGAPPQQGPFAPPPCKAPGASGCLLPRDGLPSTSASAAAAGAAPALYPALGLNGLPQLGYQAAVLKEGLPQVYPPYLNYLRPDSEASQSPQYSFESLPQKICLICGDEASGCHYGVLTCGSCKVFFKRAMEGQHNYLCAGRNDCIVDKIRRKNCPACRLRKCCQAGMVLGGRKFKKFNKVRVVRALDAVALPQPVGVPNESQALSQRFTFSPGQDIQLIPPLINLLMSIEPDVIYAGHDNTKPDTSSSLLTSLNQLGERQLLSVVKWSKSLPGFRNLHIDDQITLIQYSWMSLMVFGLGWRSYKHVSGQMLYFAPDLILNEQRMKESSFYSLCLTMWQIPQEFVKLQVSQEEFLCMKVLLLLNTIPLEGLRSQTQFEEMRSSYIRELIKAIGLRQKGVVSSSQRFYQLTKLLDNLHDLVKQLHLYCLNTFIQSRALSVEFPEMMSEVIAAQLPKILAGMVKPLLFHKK
# Assay: Progesterone receptor transactivation test in stably transfected SK-N-MC cells (PR-A, MMTV-LUC reporter)
# Type: cell-based
# Conditions: 0.1 nmol/l promegestone, 24 hours, read-out: PR-A IC50 (antagonistic potency)
# Protocol: Progesterone receptor-antagonistic action in stable transfectants of human neuroblastoma cells (SK-N-MC cells) with the human progesterone A or progesterone B receptor and an MN-LUC reporter construct SK-N-MC cells (human neuroblastoma cells) which have been stably transfected with plasmids expressing the human progesterone receptor B (pRChPR-B-neo) or the human progesterone receptor A (pRChPR-A-neo) and a reporter construct (pMMTV-LUC) were incubated for 24 hours either in the absence (negative control) or in the presence of ascending amounts of the particular test compound (0.01 nmol/l, 0.1 nmol/l, 1 […], 100 nmol/l and […]), in order to determine the agonistic efficacy. As a positive control of the reporter gene induction, the cells were treated with the synthetic gestagen promegestone (0.01 nmol/l, 0.1 nmol/l, 1 nmol/l, 10 nmol/l, 100 nmol/l and […]). To determine the antagonistic activity, the cells were treated with 0.1 nmol/l promegestone and additionally with ascending amounts of the particular test compound (0.01 nmol/l, 0.1 nmol/l, 1 nmol/l, 10 nmol/l, 100 nmol/l and […]). The activity of the reporter gene LUC (LUC=luciferase) was determined in the cell lysates and measured as RLU (relative light units). All measurements are reported as % efficacy and as EC50 and IC50 concentrations.
row,IC50 [pM],Compound
1,70,"CC(=O)O[C@H](C)c1ccc([C@H]2C[C@@]3(C)C(CC[C@@]3(O)C(F)(F)C(F)(F)F)C3CCC4=CC(=O)CCC4=C32)cc1 (mixture of isomers) [Example 1, acetic acid (RS)-1-[4-((8S,11R,13S,14S,17S)-17-hydroxy-13-methyl-3-oxo-17-pentafluoroethyl-2,3,6,7,8,11,12,13,14,15,16,17-dodecahydro-1H-cyclopenta[a]phenanthren-11-yl)phenyl]ethyl ester]"
2,210,"CC(C)CC(=O)OC(C)c1ccc([C@H]2C[C@@]3(C)C(CC[C@@]3(O)C(F)(F)C(F)(F)F)C3CCC4=CC(=O)CCC4=C32)cc1 (mixture of isomers) [Example 3, 3-Methylbutyric acid (RS)-1-[4-((8S,11R,13S,14S,17S)-17-hydroxy-13-methyl-3-oxo-17-pentafluoroethyl-2,3,6,7,8,11,12,13,14,15,16,17-dodecahydro-1H-cyclopenta[a]phenanthren-11-yl)phenyl]ethyl ester]"
3,200,"CC(OC(=O)CC(C)(C)C)c1ccc([C@H]2C[C@@]3(C)C(CC[C@@]3(O)C(F)(F)C(F)(F)F)C3CCC4=CC(=O)CCC4=C32)cc1 (mixture of isomers) [Example 4, 3,3-Dimethylbutyric acid (RS)-1-[4-((8S,11R,13S,14S,17S)-17-hydroxy-13-methyl-3-oxo-17-pentafluoroethyl-2,3,6,7,8,11,12,13,14,15,16,17-dodecahydro-1H-cyclopenta[a]phenanthren-11-yl)phenyl]ethyl ester]"
4,100,"CC(C)C(=O)OC(C)c1ccc([C@H]2C[C@@]3(C)C(CC[C@@]3(O)C(F)(F)C(F)(F)F)C3CCC4=CC(=O)CCC4=C32)cc1 (mixture of isomers) [Example 2, Isobutyric acid (RS)-1-[4-((8S,11R,13S,14S,17S)-17-hydroxy-13-methyl-3-oxo-17-pentafluoroethyl-2,3,6,7,8,11,12,13,14,15,16,17-dodecahydro-1H-cyclopenta[a]-phenanthren-11-yl)phenyl]ethyl ester]"

row,Compound,IC50 [pM]
1,"CC(OC(=O)[C@@H](C)NC(=O)OC(C)(C)C)c1ccc([C@H]2C[C@@]3(C)[C@@H](CC[C@@]3(O)C(F)(F)C(F)(F)F)[C@@H]3CCC4=CC(=O)CCC4=C32)cc1 (mixture of isomers) [Example 6, (R)-2-tert-Butoxycarbonylaminopropionic acid (RS)-1-[4-((8S,11R,13S,-14S,17S)-17-hydroxy-13-methyl-3-oxo-17-pentafluoroethyl-2,3,6,7,8,11,12,13,14,15,16,17-dodecahydro-1H-cyclopenta[a]phenanthren-11-yl)phenyl]ethyl ester]",100
2,"CC(OC(=O)[C@@H](NC(=O)OC(C)(C)C)C(C)C)c1ccc([C@H]2C[C@@]3(C)C(CC[C@@]3(O)C(F)(F)C(F)(F)F)C3CCC4=CC(=O)CCC4=C32)cc1 (mixture of isomers) [Example 5, (S)-2-tert-Butoxycarbonylamino-3-methylbutyric acid (RS)-1-[4-((8S,11R,-13S,14S,17S)-17-hydroxy-13-methyl-3-oxo-17-pentafluoroethyl-2,3,6,7,8,11,12,13,14,15,-16,17-dodecahydro-1H-cyclopenta[a]phenanthren-11-yl)phenyl]ethyl ester]",300
3,"CC(OC(=O)[C@H](C)NC(=O)OC(C)(C)C)c1ccc([C@H]2C[C@@]3(C)C(CC[C@@]3(O)C(F)(F)C(F)(F)F)C3CCC4=CC(=O)CCC4=C32)cc1 (mixture of isomers) [Example 7, (S)-2-tert-Butoxycarbonylaminopropionic acid (RS)-1-[4-((8S,11R,13S,-14S,17S)-17-hydroxy-13-methyl-3-oxo-17-pentafluoroethyl-2,3,6,7,8,11,12,13,14,15,16,17-dodecahydro-1H-cyclopenta[a]phenanthren-11-yl)phenyl]ethyl ester]",140
